Measured values as given in US12685735B2 (Foghorn Therapeutics Inc., priority 2020, dated 2026).

Legend:
BRM = BRM (Homo sapiens, UniProt P51531); test: ATPase catalytic activity assay of BRM (ADP-Glo); assay type: biochemical; details: for IC50: read-out: BRM IC50 (μM)*
Outline: (§1)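 Once the enzyme reaction finished, residual ATP is removed with ADP-Glo Reagent over 40 minutes at room temperature. Kinase Detection Reagent then converts product ADP into ATP during a 60-minute room-temperature incubation, and the luciferase signal is read.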

BRG-1 = BRG-1 (Homo sapiens, UniProt P51532); test: ATPase catalytic activity assay of BRG-1 (ADP-Glo); assay type: biochemical; details: ATPase catalytic activity, ADP-Glo; for IC50: read-out: BRG1 IC50 (μM)*; for Emax: read-out: BRG1 Max % Inhibition
Chain of BRG-1 (P51532 whole entry): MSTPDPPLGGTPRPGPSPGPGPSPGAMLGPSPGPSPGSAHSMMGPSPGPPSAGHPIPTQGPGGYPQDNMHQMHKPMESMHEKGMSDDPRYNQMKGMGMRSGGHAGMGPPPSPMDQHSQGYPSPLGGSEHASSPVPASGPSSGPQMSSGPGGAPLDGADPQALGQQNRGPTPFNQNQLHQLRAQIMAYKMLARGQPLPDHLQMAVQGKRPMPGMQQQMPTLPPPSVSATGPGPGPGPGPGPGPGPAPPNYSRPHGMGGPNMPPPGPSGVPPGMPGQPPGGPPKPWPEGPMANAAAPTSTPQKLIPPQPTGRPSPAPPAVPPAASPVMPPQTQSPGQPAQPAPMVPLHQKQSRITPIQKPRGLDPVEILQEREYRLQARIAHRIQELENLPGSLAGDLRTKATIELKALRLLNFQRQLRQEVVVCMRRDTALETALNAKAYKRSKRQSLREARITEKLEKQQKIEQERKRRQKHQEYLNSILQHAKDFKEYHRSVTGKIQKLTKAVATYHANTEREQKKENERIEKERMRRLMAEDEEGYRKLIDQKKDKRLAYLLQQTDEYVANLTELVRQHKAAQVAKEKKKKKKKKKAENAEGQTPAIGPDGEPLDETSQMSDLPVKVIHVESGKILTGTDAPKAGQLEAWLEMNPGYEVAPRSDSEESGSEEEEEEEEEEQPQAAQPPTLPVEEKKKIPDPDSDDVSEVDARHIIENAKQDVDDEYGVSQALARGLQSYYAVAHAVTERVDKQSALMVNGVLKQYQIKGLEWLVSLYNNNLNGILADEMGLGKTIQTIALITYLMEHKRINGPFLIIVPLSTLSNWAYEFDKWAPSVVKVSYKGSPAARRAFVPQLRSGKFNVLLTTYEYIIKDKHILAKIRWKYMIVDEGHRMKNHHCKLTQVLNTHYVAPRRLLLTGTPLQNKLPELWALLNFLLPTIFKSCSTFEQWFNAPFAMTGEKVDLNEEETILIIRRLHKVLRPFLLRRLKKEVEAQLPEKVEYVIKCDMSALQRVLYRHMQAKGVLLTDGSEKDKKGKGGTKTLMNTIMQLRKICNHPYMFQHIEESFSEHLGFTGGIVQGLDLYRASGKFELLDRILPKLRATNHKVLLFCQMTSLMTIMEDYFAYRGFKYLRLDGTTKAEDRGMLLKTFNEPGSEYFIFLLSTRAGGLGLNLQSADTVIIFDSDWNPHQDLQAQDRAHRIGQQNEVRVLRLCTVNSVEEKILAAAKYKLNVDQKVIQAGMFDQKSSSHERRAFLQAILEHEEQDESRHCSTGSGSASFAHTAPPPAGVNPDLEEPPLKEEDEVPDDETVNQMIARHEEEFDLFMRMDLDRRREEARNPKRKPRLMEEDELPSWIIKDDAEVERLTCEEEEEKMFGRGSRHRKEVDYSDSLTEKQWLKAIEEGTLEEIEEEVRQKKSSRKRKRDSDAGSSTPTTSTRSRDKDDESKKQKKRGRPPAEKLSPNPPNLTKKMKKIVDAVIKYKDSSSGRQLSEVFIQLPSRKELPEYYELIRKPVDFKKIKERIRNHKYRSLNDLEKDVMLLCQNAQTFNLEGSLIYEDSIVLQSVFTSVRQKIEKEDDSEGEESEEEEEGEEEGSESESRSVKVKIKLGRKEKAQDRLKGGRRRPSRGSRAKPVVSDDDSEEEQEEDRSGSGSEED
Outline: as §1

Chain of BRM (P51531 whole entry): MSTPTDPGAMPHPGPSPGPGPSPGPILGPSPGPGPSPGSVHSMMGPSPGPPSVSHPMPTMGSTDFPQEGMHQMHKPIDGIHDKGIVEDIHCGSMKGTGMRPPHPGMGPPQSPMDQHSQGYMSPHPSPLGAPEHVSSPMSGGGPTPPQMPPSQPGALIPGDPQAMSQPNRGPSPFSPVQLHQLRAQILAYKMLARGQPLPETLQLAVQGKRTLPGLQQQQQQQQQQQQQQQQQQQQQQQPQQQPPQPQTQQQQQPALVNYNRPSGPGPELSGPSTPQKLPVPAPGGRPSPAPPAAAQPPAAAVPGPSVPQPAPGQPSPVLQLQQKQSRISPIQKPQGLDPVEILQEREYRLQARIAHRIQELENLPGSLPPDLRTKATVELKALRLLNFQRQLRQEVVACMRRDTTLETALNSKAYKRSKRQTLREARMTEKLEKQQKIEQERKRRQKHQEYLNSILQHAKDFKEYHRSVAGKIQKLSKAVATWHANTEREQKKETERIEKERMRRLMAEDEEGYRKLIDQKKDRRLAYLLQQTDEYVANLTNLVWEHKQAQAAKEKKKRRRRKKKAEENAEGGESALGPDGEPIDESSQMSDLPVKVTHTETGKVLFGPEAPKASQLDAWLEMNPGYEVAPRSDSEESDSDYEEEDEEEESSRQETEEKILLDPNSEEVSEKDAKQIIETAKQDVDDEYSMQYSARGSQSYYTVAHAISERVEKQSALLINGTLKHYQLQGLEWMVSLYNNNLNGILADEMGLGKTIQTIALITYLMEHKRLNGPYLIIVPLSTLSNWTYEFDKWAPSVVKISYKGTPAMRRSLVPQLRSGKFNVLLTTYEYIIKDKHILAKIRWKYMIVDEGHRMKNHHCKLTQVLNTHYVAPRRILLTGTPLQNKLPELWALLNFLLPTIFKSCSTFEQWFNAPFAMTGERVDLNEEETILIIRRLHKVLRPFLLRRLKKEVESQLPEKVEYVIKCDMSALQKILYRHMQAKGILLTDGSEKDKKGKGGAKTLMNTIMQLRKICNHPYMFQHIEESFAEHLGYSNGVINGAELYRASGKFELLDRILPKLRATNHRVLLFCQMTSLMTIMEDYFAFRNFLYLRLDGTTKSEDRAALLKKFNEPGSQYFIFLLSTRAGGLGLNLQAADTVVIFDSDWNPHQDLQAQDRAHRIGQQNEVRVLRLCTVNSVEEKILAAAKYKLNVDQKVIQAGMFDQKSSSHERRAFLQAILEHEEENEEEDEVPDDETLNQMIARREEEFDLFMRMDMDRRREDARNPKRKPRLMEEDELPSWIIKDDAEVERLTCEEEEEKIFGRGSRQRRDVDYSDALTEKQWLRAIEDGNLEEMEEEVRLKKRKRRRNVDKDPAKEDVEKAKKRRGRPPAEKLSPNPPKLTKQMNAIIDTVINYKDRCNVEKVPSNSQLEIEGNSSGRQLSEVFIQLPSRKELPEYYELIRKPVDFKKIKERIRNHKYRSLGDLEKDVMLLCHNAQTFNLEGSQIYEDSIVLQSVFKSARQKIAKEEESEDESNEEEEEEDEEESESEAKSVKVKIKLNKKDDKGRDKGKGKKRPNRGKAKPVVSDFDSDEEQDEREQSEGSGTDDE

Row | BRM Max % Inhibition (BRM) [%] | IC50 (BRM) [µM] | IC50 (BRG-1) [µM] | Emax (BRG-1) [%] | BRG1 Max % Inhibition (BRG-1) [%] | SMILES
1 | >95 | < 0.1 | 0.1 to 1 | > 95 | – | CC1(F)COCc2ccc(C(=O)NCC(=O)Nc3nc(-c4cccc(N5CCC5)c4)cs3)cc21 (centres unmarked) [Compound 356, N-(2-((4-(3-(azetidin-1-yl)phenyl)thiazol-2-yl)amino)-2-oxoethyl)-4-fluoro-4-methylisochromane-6-carboxamide]
2 | >90 | 0.1 to 1 | 0.1 to 1 | > 90 | – | C[C@@H]1CN(c2cccc(-c3csc(NC(=O)CNC(=O)c4cccc([C@]5(F)C[C@@H](F)C5)c4)n3)n2)C[C@H](C)O1 [Compound 357, 3-((1S,3S)-1,3-difluorocyclobutyl)-N-(2-((4-(6-((cis)-2,6-dimethylmorpholino)pyridin-2-yl)thiazol-2-yl)amino)-2-oxoethyl)benzamide]
3 | >95 | < 0.1 | 0.1 to 1 | > 95 | – | C[C@@H]1CN(c2cccc(-c3csc(NC(=O)CNC(=O)c4cccc([C@]5(F)C[C@H](F)C5)c4)n3)n2)C[C@H](C)O1 [Compound 358, 3-((1R,3R)-1,3-difluorocyclobutyl)-N-(2-((4-(6-((cis)-2,6-dimethylmorpholino)pyridin-2-yl)thiazol-2-yl)amino)-2-oxoethyl)benzamide]
4 | >95 | < 0.1 | 0.1 to 1 | > 95 | – | C[C@@]1(C#N)COCc2ccc(C(=O)NCC(=O)Nc3nc(-c4cccc([C@H]5CCO5)c4)cs3)cc21 [Compound 359, (R)-4-cyano-4-methyl-N-(2-((4-(3-((trans)-oxetan-2-yl)phenyl)thiazol-2-yl)amino)-2-oxoethyl)isochromane-6-carboxamide]
5 | – | < 0.1 | 1 to 5 | > 95 | – | C[C@@H]1CN(c2cccc(-c3csc(NC(=O)CNC(=O)c4ccc5c(c4)C4(CCO5)CCO4)n3)n2)C[C@H](C)O1 (some centres unmarked) [Compound 360]
6 | >90 | < 0.1 | 0.1 to 1 | > 90 | – | O=C(CNC(=O)c1cccc(C2(C(F)F)COC2)c1)Nc1nc(-c2cccc(N3CCC3)c2)cs1 [Compound 362, N-(2-((4-(3-(azetidin-1-yl)phenyl)thiazol-2-yl)amino)-2-oxoethyl)-3-(3-(difluoromethyl)oxetan-3-yl)benzamide]
7 | >95 | < 0.1 | < 0.1 | > 95 | – | C[C@@]1(C#N)COCc2ccc(C(=O)NCC(=O)Nc3nc(-c4cc(F)cc(N5CCC5)c4)cs3)cc21 [Compound 364, (R)-N-(2-((4-(3-(azetidin-1-yl)-5-fluorophenyl)thiazol-2-yl)amino)-2-oxoethyl)-4-cyano-4-methylisochromane-6-carboxamide]
8 | >95 | < 0.1 | 0.1 to 1 | – | >95 | C[C@@]1(C#N)COCc2ccc(C(=O)NCC(=O)Nc3nc(-c4cccc(C5CCO5)c4)cs3)cc21 (some centres unmarked) [Compound 365]
9 | >85 | < 0.1 | 0.1 to 1 | > 85 | – | C[C@@H]1CN(c2cccc(-c3csc(NC(=O)CNC(=O)c4ccc5c(c4)CCOC5)n3)n2)C[C@H](C)O1 [Compound 366, N-(2-((4-(6-((cis)-2,6-dimethylmorpholino)pyridin-2-yl)thiazol-2-yl)amino)-2-oxoethyl)isochromane-6-carboxamide]
10 | >85 | 0.1 to 1 | 1 to 5 | > 85 | – | CCS1(=O)=NCc2ccc(C(=O)NCC(=O)Nc3nc(-c4cccc(N5C[C@@H](C)O[C@@H](C)C5)c4)cs3)cc21 (stereo partly drawn) [Compound 367, N-(2-((4-(3-((cis)-2,6-dimethylmorpholino)phenyl)thiazol-2-yl)amino)-2-oxoethyl)-1-ethyl-3H-1I4-benzo[d]isothiazole-6-carboxamide 1-oxide]
11 | >85 | 0.1 to 1 | 1 to 5 | > 85 | – | C[C@@H]1CN(c2cccc(-c3csc(NC(=O)CNC(=O)c4ccc5c(c4)[C@@](C)(C#N)CN5C)n3)c2)C[C@H](C)O1 [Compound 368, (R)-3-cyano-N-(2-((4-(3-((cis)-2,6-dimethylmorpholino)phenyl)thiazol-2-yl)amino)-2-oxoethyl)-1,3-dimethylindoline-5-carboxamide]
12 | >95 | < 0.1 | < 0.1 | > 95 | – | C[C@@H]1CN(c2cccc(-c3csc(NC(=O)CNC(=O)c4ccc5c(c4)[C@](C)(C#N)CN5C)n3)c2)C[C@H](C)O1 [Compound 369, (S)-3-cyano-N-(2-((4-(3-((cis)-2,6-dimethylmorpholino)phenyl)thiazol-2-yl)amino)-2-oxoethyl)-1,3-dimethylindoline-5-carboxamide]
13 | >65 | 0.1 to 1 | > 5 | > 65 | – | C[C@@H]1CN(c2cccc(-c3csc(NC(=O)CNC(=O)c4ccc5c(c4)CCCO5)n3)n2)C[C@H](C)O1 [Compound 370, N-(2-((4-(6-((cis)-2,6-dimethylmorpholino)pyridin-2-yl)thiazol-2-yl)amino)-2-oxoethyl)chromane-6-carboxamide]
14 | >95 | < 0.1 | 0.1 to 1 | > 95 | – | C[C@@]1(C#N)COCc2ccc(C(=O)NCC(=O)Nc3nc(-c4cccc(C5CCO5)c4)cs3)cc21 (stereo partly drawn) [Compound 371, (R)-4-cyano-4-methyl-N-(2-((4-(3-(oxetan-2-yl)phenyl)thiazol-2-yl)amino)-2-oxoethyl)isochromane-6-carboxamide]
15 | >95 | < 0.1 | 0.1 to 1 | > 95 | – | C[C@@H]1CN(c2cccc(-c3csc(NC(=O)CNC(=O)c4ccc5c(c4)C(C#N)(CO)COC5)n3)c2)C[C@H](C)O1 (stereo partly drawn) [Compound 374, 4-cyano-N-(2-((4-(3-((cis)-2,6-dimethylmorpholino)phenyl)thiazol-2-yl)amino)-2-oxoethyl)-4-(hydroxymethyl)isochromane-6-carboxamide]
16 | >95 | < 0.1 | 0.1 to 1 | > 95 | – | C[C@@H]1CN(c2cccc(-c3csc(NC(=O)CNC(=O)c4ccc5c(c4)C4(CCO4)COC5)n3)n2)C[C@H](C)O1 (stereo partly drawn) [Compound 376, N-(2-((4-(6-((cis)-2,6-dimethylmorpholino)pyridin-2-yl)thiazol-2-yl)amino)-2-oxoethyl)spiro[isochromane-4,2′-oxetane]-6-carboxamide]
17 | >95 | < 0.1 | < 0.1 | > 95 | – | COc1cc(F)cc(-c2csc(NC(=O)CNC(=O)c3ccc4c(c3)[C@](C)(C#N)COC4)n2)c1 [Compound 377, (R)-4-cyano-N-(2-((4-(3-fluoro-5-methoxyphenyl)thiazol-2-yl)amino)-2-oxoethyl)-4-methylisochromane-6-carboxamide]
18 | >95 | < 0.1 | 0.1 to 1 | > 95 | – | CC(=O)N1CC(c2cccc(-c3csc(NC(=O)CNC(=O)c4ccc5c(c4)[C@](C)(C#N)COC5)n3)c2)C1 [Compound 379, (R)-N-(2-((4-(3-(1-acetylazetidin-3-yl)phenyl)thiazol-2-yl)amino)-2-oxoethyl)-4-cyano-4-methylisochromane-6-carboxamide]
19 | >80 | 0.1 to 1 | > 5 | > 80 | – | C[C@@H]1CN(c2cccc(-c3csc(NC(=O)CNC(=O)c4ccc5c(c4)C4(CCO5)COC4)n3)n2)C[C@H](C)O1 [Compound 381, N-(2-((4-(6-((cis)-2,6-dimethylmorpholino)pyridin-2-yl)thiazol-2-yl)amino)-2-oxoethyl)spiro[chromane-4,3′-oxetane]-6-carboxamide]
20 | >50 | 0.1 to 1 | > 5 | > 50 | – | Cn1ccc2ccc(-c3csc(NC(=O)CNC(=O)c4ccc5c(c4)C4(CCO5)COC4)n3)cc2c1=O [Compound 382, N-(2-((4-(2-methyl-1-oxo-1,2-dihydroisoquinolin-7-yl)thiazol-2-yl)amino)-2-oxoethyl)spiro[chromane-4,3′-oxetane]-6-carboxamide]
21 | >85 | 0.1 to 1 | > 5 | > 85 | – | C[C@@H]1CN(c2cccc(-c3csc(NC(=O)CNC(=O)c4cc(C(C)(C)C)ncc4F)n3)c2)C[C@H](C)O1 [Compound 383, 2-(tert-butyl)-N-(2-((4-(3-((cis)-2,6-dimethylmorpholino)phenyl)thiazol-2-yl)amino)-2-oxoethyl)-5-fluoroisonicotinamide]
22 | >90 | 0.1 to 1 | 1 to 5 | > 90 | – | C[C@@H]1CN(c2cccc(-c3csc(NC(=O)CNC(=O)c4ccc5c(c4)C(C)(C#N)OCC5)n3)n2)C[C@H](C)O1 (stereo partly drawn) [Compound 384, 1-cyano-N-(2-((4-(6-((cis)-2,6-dimethylmorpholino)pyridin-2-yl)thiazol-2-yl)amino)-2-oxoethyl)-1-methylisochromane-7-carboxamide]
23 | >95 | < 0.1 | 0.1 to 1 | > 95 | – | C[C@@H]1CN(c2cccc(-c3csc(NC(=O)CNC(=O)c4ccc5c(c4)C(F)(F)COC5)n3)n2)C[C@H](C)O1 [Compound 385, N-(2-((4-(6-((cis)-2,6-dimethylmorpholino)pyridin-2-yl)thiazol-2-yl)amino)-2-oxoethyl)-4,4-difluoroisochromane-6-carboxamide]
24 | >95 | < 0.1 | 0.1 to 1 | > 95 | – | C[C@@]1(C#N)COCc2ccc(C(=O)NCC(=O)Nc3nc(-c4cccc([C@@H]5CC5(F)F)n4)cs3)cc21 [Compound 386, (R)-4-cyano-N-(2-((4-(6-((S)-2,2-difluorocyclopropyl)pyridin-2-yl)thiazol-2-yl)amino)-2-oxoethyl)-4-methylisochromane-6-carboxamide]
